Tests used:
[1] = tested on: cystic fibrosis patients heterozygous for the F508del mutation and a CFTR residual function mutation; assay: Second clinical trial: eight-week, randomized, double-blind, ivacaftor-controlled, parallel-group study in 150 CF patients; assay type: in vivo, human; details: active comparator treatment period
Description: A second clinical trial was conducted with 150 cystic fibrosis patients aged 12 years and older Who were heterozygous for the F508del mutation and a CFTR residual function mutation. This trial was an eight-week, randomized, double-blind, ivacaftor-controlled, parallel-group study in CF patients. Patients were randomized 1:1 to receive tezacaftor/ivacaftor or ivacaftor following a four-week run in of ivacaftor. The mean ppFEV1 at baseline was 64.3%. The treatment difference between tezacaftor/ivacaftor and ivacaftor-treated patients for absolute change in ppFEV1 (primary endpoint) through Week 8 in the active comparator treatment period was 0.3 percentage points.
Results for tezacaftor/ivacaftor- and ivacaftor-treated patients were similar for absolute change in ppFEV1, relative change in ppFEV1 and CFQ-R Respiratory Domain Score. In the active comparator treatment period, the mean absolute change in ppFEV 1 was 0.5% in the tezacaftor/ivacaftor group and 0.2% in the ivacaftor group; the mean relative change in ppFEV1 was 1.3% in the tezacaftor/ivacaftor group and 0.5% in the ivacaftor group; and the mean absolute change in the pooled CFQ-R respiratory domain score was 0.7 points in the tezacaftor/ivacaftor group and −2.1 points in the ivacaftor group. There was a reduction in sweat chloride in tezacaftor/ivacaftor-treated patients compared to the ivacaftor group (−5.8 mmol/L).

[2] = tested on: cystic fibrosis patients with splice and missense mutations; assay: Clinical trial in 248 cystic fibrosis patients with splice and missense (residual function) mutations: placebo, Compound II alone, Compound I and Compound II; assay type: in vivo, human; details: 100 mg Compound I every 24 hours, 150 mg Compound II every 12 hours
Description: A clinical trial was conducted with 248 cystic fibrosis patients with splice and missense mutations. Mutations were selected for the study based on the clinical phenotype (pancreatic sufficiency), biomarker data (sweat chloride), and in vitro responsiveness to tezacaftor/ivacaftor. The patients were assigned to one of three treatment groups: placebo, Compound II alone, and Compound I and Compound II. […] As shown in.

CC(C)(C)c1cc(C(C)(C)C)c(NC(=O)c2c[nH]c3ccccc3c2=O)cc1O [Compound II, N-(2,4-di-tert-butyl-5-hydroxyphenyl)-4-oxo-1,4-dihydroquinoline-3-carboxamide]
mean absolute change in the pooled CFQ-R respiratory domain score [1]: −2.1 points
mean relative change in ppFEV1 [1]: 0.5%
mean absolute change in ppFEV1 ([1]; after four-week run in of ivacaftor): 0.2%
increase in CFQ-R score ([2]; after 8 weeks of treatment): 9.7 points
increase in ppFEV1 (percent predicted forced expiratory volume in one second) ([2]; average change from baseline after 4 and 8 weeks of treatment): 4.7 percentage points
